Measured values from ChEMBL document CHEMBL5465560, “Selectivity Literature for EUbOPEN Chemogenomic Library” (2024).
Blank lines part the entries; values can stand above or below the compound they belong to.

Tests used:
[1] = biological target: Tyrosine-protein kinase BTK (Homo sapiens, UniProt Q06187); conditions: at 10 µM
[2] = biological target: Ribosomal protein S6 kinase alpha-1 (Homo sapiens, UniProt Q15418); assay: Selectivity interaction (ActivX KiNativ screen (kinase selectivity in THP-1 cell lysates)) EUB0000639a RPS6KA1; format: subcellular; conditions: lysate, at 0.2 µM
Ribosomal protein S6 kinase alpha-1, sequence (Q15418 whole entry): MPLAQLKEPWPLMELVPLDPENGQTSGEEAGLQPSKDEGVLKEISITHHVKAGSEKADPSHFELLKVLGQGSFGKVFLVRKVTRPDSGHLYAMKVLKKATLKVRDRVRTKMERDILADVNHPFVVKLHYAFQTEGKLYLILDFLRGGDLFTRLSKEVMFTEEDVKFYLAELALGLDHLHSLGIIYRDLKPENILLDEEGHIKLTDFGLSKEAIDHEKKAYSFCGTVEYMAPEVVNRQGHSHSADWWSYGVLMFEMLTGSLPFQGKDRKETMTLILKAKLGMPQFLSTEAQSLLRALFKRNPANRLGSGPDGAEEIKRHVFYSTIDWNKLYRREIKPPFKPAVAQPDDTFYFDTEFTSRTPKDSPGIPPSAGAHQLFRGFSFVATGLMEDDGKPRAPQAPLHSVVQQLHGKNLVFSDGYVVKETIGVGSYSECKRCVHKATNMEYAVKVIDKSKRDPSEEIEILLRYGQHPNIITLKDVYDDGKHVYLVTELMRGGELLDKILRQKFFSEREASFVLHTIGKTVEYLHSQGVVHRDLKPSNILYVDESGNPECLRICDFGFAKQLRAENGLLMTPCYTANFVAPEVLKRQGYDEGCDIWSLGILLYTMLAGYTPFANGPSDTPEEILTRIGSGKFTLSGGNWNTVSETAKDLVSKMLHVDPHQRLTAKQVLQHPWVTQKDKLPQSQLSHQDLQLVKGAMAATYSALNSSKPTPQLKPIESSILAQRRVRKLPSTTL

[3] = biological target: Tyrosine-protein kinase JAK1 (Homo sapiens, UniProt P23458); assay: Selectivity interaction (ActivX KiNativ screen (kinase selectivity in THP-1 cell lysates)) EUB0000639a JAK1; format: subcellular; conditions: lysate, at 0.04 µM
Tyrosine-protein kinase JAK1, sequence (P23458 whole entry): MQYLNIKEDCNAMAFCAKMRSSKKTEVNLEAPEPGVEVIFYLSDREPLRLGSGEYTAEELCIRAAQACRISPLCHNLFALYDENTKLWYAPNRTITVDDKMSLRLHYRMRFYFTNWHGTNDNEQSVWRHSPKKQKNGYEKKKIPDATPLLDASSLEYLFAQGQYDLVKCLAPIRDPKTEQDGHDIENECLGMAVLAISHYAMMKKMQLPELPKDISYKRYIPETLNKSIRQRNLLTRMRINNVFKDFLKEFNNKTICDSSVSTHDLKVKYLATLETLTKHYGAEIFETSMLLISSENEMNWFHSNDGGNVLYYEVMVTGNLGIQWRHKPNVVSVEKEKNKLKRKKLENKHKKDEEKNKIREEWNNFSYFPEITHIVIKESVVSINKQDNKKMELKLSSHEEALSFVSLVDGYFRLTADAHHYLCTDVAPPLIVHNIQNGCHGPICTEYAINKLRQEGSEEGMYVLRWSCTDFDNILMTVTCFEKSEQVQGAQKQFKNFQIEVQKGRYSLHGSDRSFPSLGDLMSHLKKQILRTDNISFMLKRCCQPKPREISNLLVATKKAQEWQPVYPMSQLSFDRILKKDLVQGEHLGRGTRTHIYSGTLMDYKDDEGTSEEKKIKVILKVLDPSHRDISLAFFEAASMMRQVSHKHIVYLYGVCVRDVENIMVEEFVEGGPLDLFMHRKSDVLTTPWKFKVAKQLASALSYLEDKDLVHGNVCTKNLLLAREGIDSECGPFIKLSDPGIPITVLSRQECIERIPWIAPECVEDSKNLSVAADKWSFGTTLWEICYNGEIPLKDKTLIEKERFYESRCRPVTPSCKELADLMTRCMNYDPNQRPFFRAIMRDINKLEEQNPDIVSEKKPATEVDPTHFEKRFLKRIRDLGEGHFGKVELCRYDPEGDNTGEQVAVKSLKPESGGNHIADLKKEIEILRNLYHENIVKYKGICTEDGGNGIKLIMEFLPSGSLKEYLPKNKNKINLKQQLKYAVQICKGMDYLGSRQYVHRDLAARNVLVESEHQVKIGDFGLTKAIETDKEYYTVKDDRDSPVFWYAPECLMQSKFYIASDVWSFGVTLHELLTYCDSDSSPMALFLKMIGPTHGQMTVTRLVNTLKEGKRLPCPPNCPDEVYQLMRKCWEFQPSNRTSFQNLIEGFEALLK

[4] = biological target: Death-associated protein kinase 3 (Homo sapiens) (UniProt O43293); assay: Selectivity interaction (KinomeScan (DiscoverX)) EUB0001079a DAPK3; conditions: at 1 µM
Death-associated protein kinase 3 (Homo sapiens), sequence (O43293 whole entry, looked up): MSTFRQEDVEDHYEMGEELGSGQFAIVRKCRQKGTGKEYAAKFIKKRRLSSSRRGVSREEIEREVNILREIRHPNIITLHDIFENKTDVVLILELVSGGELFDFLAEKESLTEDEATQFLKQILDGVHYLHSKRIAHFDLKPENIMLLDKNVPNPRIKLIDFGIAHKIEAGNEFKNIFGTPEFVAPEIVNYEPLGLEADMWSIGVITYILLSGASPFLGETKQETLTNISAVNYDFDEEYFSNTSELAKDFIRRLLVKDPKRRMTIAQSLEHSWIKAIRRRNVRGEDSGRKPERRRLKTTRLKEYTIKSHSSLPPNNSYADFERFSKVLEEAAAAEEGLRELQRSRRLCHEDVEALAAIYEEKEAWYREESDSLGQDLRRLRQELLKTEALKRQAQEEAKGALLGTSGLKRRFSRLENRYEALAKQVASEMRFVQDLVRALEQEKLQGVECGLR

[5] = biological target: Cyclin-dependent kinase 2/cyclin E1 (Homo sapiens) (UniProt P24864+P24941); assay: (§1) Selectivity interaction (ProQinase) EUB0000171b CDK2; format: protein-complex assay
[6] = biological target: CDK2/Cyclin A2 (Homo sapiens) (UniProt P24941+P20248); assay: as §1; format: protein-complex assay
[7] = biological target: Homeodomain-interacting protein kinase 3 (Homo sapiens, UniProt Q9H422); assay: Selectivity interaction (KinomeScan (DiscoverX)) EUB0000045b HIPK3
Homeodomain-interacting protein kinase 3, sequence (Q9H422 whole entry, looked up): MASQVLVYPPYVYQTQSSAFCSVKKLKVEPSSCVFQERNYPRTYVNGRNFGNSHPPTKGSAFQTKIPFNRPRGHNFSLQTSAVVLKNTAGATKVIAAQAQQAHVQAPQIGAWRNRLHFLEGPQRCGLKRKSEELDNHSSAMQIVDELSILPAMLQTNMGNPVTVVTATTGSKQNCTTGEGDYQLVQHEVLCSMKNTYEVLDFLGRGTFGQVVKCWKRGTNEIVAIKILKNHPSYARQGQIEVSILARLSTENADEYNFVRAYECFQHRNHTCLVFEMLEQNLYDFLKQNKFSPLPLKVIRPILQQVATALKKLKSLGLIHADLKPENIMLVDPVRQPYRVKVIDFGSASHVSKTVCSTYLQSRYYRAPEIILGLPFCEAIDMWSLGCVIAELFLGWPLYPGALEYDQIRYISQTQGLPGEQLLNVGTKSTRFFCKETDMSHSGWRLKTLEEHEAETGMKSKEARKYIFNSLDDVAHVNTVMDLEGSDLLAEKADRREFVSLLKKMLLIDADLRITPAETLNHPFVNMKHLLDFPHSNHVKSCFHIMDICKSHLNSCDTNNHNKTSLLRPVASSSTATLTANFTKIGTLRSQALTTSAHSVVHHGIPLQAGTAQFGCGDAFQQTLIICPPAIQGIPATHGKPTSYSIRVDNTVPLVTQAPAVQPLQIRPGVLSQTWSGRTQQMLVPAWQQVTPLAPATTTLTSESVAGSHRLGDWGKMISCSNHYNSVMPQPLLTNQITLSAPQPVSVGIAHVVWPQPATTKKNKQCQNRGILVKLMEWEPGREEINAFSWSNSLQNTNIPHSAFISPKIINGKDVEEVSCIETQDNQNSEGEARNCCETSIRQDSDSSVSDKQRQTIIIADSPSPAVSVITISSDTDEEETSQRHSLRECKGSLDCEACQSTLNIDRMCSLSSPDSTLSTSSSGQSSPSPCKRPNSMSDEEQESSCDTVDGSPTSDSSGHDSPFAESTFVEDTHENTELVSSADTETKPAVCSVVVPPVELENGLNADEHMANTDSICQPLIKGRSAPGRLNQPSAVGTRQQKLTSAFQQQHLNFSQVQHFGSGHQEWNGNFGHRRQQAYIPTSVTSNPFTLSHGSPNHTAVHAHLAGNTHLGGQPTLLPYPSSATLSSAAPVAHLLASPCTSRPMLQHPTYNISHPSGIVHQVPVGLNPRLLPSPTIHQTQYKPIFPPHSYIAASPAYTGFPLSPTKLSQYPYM

[8] = biological target: T1, Aurora kinase A (Homo sapiens) (UniProt O14965); assay: Selectivity interaction (KinomeScan (DiscoverX)) EUB0000655a STK6; conditions: at 10 µM
T1 sequence (whole entry): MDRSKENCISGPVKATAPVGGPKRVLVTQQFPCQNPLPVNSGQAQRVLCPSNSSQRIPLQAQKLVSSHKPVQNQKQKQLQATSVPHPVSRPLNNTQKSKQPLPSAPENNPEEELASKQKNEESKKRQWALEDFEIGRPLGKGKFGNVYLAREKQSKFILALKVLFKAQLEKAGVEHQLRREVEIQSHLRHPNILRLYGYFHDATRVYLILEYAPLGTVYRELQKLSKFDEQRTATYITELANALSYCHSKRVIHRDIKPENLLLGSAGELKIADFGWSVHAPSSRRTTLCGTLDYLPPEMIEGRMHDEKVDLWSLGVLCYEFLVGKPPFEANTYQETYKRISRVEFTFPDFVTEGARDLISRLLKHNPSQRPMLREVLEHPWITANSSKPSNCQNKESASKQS

[9] = biological target: BMP-2-inducible protein kinase (Homo sapiens) (UniProt Q9NSY1); assay: Selectivity interaction (KinomeScan (DiscoverX)) EUB0000618a BMP2K; conditions: at 10 µM
BMP-2-inducible protein kinase (Homo sapiens), sequence (Q9NSY1 whole entry, looked up): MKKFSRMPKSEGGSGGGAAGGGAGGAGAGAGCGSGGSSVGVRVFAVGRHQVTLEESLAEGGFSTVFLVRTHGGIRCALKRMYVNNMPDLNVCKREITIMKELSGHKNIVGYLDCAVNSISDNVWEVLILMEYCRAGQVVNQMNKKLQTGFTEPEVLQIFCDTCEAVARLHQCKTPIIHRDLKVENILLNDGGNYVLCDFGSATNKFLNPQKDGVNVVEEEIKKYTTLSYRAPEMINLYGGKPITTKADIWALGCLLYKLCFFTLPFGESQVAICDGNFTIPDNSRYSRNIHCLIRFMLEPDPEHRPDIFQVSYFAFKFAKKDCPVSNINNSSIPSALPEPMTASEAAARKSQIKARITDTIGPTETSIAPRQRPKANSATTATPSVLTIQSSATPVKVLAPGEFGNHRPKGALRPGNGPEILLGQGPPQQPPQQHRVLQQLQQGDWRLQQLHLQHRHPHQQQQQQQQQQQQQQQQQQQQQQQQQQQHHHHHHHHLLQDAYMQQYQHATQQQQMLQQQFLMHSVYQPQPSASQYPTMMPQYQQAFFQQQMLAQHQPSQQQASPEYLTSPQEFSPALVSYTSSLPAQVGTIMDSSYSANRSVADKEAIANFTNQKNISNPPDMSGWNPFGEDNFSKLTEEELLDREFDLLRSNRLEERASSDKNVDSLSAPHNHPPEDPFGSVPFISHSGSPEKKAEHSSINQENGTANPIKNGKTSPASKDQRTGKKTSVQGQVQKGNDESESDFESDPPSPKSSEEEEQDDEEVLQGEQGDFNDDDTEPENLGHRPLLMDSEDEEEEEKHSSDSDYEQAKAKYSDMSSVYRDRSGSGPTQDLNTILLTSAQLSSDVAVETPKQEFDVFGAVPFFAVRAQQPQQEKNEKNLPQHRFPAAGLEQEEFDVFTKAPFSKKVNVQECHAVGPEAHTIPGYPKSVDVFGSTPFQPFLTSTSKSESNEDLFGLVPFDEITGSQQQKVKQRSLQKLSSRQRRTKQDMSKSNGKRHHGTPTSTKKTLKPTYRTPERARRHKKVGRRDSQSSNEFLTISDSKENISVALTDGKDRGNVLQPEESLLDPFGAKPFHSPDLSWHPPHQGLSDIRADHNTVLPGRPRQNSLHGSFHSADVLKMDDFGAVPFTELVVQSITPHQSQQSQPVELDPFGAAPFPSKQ

[10] = biological target: T2, Inhibitor of nuclear factor kappa-B kinase subunit alpha (Homo sapiens) (UniProt O15111); assay: Selectivity interaction (KinomeScan (DiscoverX)) EUB0000607a CHUK; conditions: at 10 µM
T2 sequence (whole entry): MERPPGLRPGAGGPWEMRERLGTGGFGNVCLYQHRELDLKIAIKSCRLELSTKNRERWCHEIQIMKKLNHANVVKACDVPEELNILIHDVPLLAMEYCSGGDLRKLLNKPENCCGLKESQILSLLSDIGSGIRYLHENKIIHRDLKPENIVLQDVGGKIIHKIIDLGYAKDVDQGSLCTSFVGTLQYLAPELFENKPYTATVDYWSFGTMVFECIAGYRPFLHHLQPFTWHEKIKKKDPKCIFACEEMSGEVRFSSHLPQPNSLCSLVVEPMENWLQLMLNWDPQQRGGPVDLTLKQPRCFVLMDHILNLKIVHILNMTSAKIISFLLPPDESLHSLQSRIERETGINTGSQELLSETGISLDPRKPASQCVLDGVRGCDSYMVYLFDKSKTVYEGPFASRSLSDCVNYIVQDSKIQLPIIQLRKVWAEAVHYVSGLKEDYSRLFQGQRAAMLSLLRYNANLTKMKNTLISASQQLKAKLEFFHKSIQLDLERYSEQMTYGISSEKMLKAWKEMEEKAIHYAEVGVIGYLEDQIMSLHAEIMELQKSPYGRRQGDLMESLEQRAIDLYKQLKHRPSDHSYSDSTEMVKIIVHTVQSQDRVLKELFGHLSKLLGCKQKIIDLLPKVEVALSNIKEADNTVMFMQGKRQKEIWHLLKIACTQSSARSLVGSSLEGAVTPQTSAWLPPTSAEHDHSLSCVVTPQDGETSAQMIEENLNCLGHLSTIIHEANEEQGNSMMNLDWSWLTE

[11] = biological target: Serine/threonine-protein kinase PLK1 (Homo sapiens, UniProt P53350); assay: Selectivity interaction (SelectScreen profiling (Invitrogen)) EUB0000607a PLK1; conditions: at 2 µM
[12] = biological target: T3, Non-receptor tyrosine-protein kinase TNK1 (Homo sapiens) (UniProt Q13470); assay: Selectivity interaction (KinomeScan (DiscoverX)) EUB0000666a TNK1; conditions: at 10 µM
T3 sequence (whole entry): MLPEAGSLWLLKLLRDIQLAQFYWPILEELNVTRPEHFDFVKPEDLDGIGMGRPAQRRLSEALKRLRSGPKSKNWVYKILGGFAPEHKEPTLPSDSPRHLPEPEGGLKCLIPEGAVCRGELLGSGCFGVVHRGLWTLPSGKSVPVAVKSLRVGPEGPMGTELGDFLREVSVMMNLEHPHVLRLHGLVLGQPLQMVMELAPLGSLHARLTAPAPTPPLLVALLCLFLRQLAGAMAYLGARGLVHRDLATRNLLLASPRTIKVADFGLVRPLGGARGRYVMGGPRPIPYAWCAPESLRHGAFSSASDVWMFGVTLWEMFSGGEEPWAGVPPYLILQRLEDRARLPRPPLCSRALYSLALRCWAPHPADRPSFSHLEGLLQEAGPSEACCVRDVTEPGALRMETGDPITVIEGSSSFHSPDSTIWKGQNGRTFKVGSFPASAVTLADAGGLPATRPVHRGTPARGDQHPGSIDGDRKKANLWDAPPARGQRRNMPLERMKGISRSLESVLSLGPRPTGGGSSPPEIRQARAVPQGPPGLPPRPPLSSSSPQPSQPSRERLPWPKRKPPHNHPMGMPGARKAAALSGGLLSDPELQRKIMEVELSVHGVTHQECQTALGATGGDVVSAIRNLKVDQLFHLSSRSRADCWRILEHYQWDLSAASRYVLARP

Structure (SMILES): Cc1cc([C@@H](C)Nc2ccccc2C(=O)O)c2nc(N3CCOCC3)cc(=O)n2c1 [AZD-6482]
% of control [1]: 97%

% of inhibition [2]: -12.2% | % of inhibition [3]: -11.6%
Structure (SMILES): CC[C@@H]1[C@H](F)C(=O)N[C@@H]1COc1nccc2cc(C(N)=O)c(OC)cc12 [ZIMLOVISERTIB]

Structure (SMILES): Nc1cnc(N2CCc3cc(S(=O)(=O)Nc4c(F)cc(Cl)cc4F)cc(N4CCCC4=O)c32)nc1 [TP-020n]
% of control [4]: 83%

% of control ([5]; at 1 µM): 88% | % of control ([5]; at 5 µM): 62% | % of control ([6]; at 1 µM): 78% | % of control ([6]; at 5 µM): 56%
Structure (SMILES): C=CC(=O)Nc1cccc(C(=O)Nc2ccc(Nc3cc(-c4[nH]c(SC)nc4C)ccn3)cc2)c1

Structure (SMILES): C=CC(=O)Nc1cc(-n2c(=O)ccc3cnc4ccc(-c5ccc(NS(C)(=O)=O)cc5)cc4c32)ccc1C
% of control ([7]; at 1 µM): 100% | % of control ([7]; at 10 µM): 100%

Structure (SMILES): CN(C)CCOc1ccc(-c2nc(-c3ccncc3)c(-c3ccc4c(c3)CC/C4=N\O)[nH]2)cc1
% of control [8]: 90%

Structure (SMILES): O[C@H]1CC[C@H](Nc2ncc3nc(Nc4c(F)cc(F)cc4F)n([C@H]4CCOC4)c3n2)CC1
% of control [9]: 100%

Structure (SMILES): CNC(=O)Nc1ccc(-c2nc(N3CC4CCC(C3)O4)c3cnn(C4CCC5(CC4)OCCO5)c3n2)cc1
% of control [10]: 100% | % of inhibition [11]: -4%

Structure (SMILES): O=C(NOC[C@H](O)CO)c1ccc(F)c(F)c1Nc1ccc(I)cc1F
% of control [12]: 68%
